# Results reported in patent publication US11421264B2, “Thiol-containing cleave reagents and oxidative wash” (IsoPlexis Corporation, priority 2015, dated 2022).
# Structures can show the parent of a compound that is named as a salt.
# Columns and labels:
# [1] = Cleavage of 3′-(MeSSCH2) capped nucleotide with attached disulfide linker by thiol based cleave reagents (LC-MS); details: for Compound C [%]: fully cleaved product; for Compound C [%] / Compound B [%] / Compound A [%]: Compound A 0.2 mM, cleave agent 20 mM, buffer 200 mM TE pH 8.5, 10 min @ 65 degree C.; for Compound B [%]: partly cleaved product; for Compound A [%]: starting nucleotide left, relative peak area at 280
# Description: The structures of these cleave reagents are shown. See, FIG. 83. The cleavage products were then characterized by liquid chromatography/mass spectrometry ((LC/MS). See, FIG. 84. Compounds A, B and C are shown in FIG. 82A-82C.
# This example presents a general method for cleavage studies as presented herein.
# A stock solution of 100 mM cleave reagent (see Table-1) was prepared in 1.0 M TE buffer (pH 8.5, Sigma #T9285) in a 15.0 mL centrifuge tube. Then an aliquot of 20 μL (2,000 nmol) of it was diluted with 76.9 uL distilled water in a 1.0 mL centrifuge tube and added with 3.07 μL of 6.5 mM MeSSdUTP-ARA-NH2 (11, 20 nmol) to obtain—100 litL of total volume (Final concentration: 20 mM cleaving agent, 0.2 mM nucleotide, 200 mM TE buffer). The mixture tube was heated at 65 degree C. on a pre-heated thermocycler by shaking gently. The mixture was immediately analyzed by LC-MS after 10 minutes. The % conversion was determined by relative peak areas of the respective peaks extracted at 280 mu wavelength.
# [2] = Cleavage of nucleotide with dithio 3′ protective group and dithio based linker by cleavage agents (RP-HPLC, FIG. 78); details: RP-HPLC after 10 minutes of incubation with cleave reagent
# Excerpt: In addition to these a variety of suitable cleaving agents can be used such as Bis(2-mercaptoethyl)sulfone (BMS) and N,N′-dimethyl-N,N′-bis(mercaptoacetyl)hydrazine (DMH) (Singh et al., Bioorg. Chem., 22, 109-115 (1994). Reactions can be further catalyzed by inclusion of selenols (Singh et al. Anal Biochem. 1995 Nov. 20; 232(1):86-91 [18]). Borohydrides, such as sodium borohydrides can also be used for this purpose (Stahl et al., Anal. Chem., 1957, 29 (1), pp 154-155 [19]) as well as ascorbic acid (Nardai et al., J. Biol. Chem. 276, 8825-8828 (2001)). In addition, enzymatic methods for cleavage of disulfide bonds ae also well known such as disulfide and thioreductase and can be used with compounds of the present invention (Holmgren et. al., Methods in Enzymology, Volume 252, 1995, Pages 199-208 [21]).
Compound,Compound C [%] [1] [%],Compound B [%] [1] [%],Compound A [%] [1] [%],identified composition of reaction mixture: cleavage of linker and 3′-protective group [2],cleavage of both the capping group and the linker ([1]; in less than ten (10) minutes at 65° C. in TRIS buffer (pH 8.5))
"O[C@H](CS)[C@H](O)CS (racemic) [DTT, dithiothreitol]",100,0,0,full cleavage of both linker and the 3′-protective groups,
NCCS [Cysteamine],100,0,0,full cleavage of both linker and the 3′-protective groups,
"O=S(=O)(O)CC(S)CS (centres unmarked) [Dimercaptopropanesulfonate, 2,3-Dimercapto-1-propanesulfonic acid sodium salt]",100,0,0,,
OC(=S)CCC(O)=S [Dithiosuccinic acid],,,,,complete cleavage was not observed
N[C@@H](CS)C(=O)O [L-Cysteine],100,0,0,full cleavage of both linker and the 3′-protective groups,
Dithiosuccinic acid,50,50,0,selective cleavage of 3′-O-protective group,
